The record followed here is publication PMC8791944, “GLUT3 inhibitor discovery through in silico ligand screening and in vivo validation in eukaryotic expression systems” (Scientific Reports, 2022).

In the data set the test system is HepG2 (liver cancer) cells. Put plainly: MTT cancer cell viability assay, HepG2. The class given is cell-based. The conditions noted are these: HepG2, 48 h. Here is the method: A possible therapeutic application of GLUT3 inhibitors is in oncology, especially for cancers in which GLUT3 is a poor prognosis marker. We tested the effect of GLUT3 inhibitors on the cell viability of several different cancer lines: myeloid leukemia (HL60 and U937), lung cancer (A549), colorectal adenocarcinoma (Caco-2), breast cancer (MCF7), hepatocellular carcinoma (HepG2), and choriocarcinoma (BeWo) cells. GLUT3 inhibitors, at five different concentrations, ranging from 2 to 100 µM, were incubated with cancer cells for 48 h. Then, cell viability was assessed with the MTT assay. […] G3iC and G3iD also affected the leukemia cell lines but at double the concentrations of G3iB and G3iE. […] G3iB had some cytotoxic activity (CC50 < 50 µM) against the highest number of cancer cell lines (HL60, U937, A549, HepG2, and MCF7).
Cancer cell viability in the presence of GLUT3 inhibitors was assayed using the MTT Cell Viability Kit (Biotium Inc, Freemont, CA) according to manufacturer’s instructions. Cancer cells were grown in the corresponding medium, at 37 °C and 5% CO2 in a humidified incubator. The media (Gibco) for leukemia cells (HL60 and U937), A549, MCF7, BeWo, and HepG2 cells were RPMI 1640, Ham’s F-12K, DMEM:F-12, Ham’s F-12K, and EMEM, respectively, all supplemented with 10% (v/v) fetal bovine serum (HyClone). Caco-2 cells were grown in EMEM supplemented with 20% (v/v) fetal bovine serum. Cells were detached from the culture flasks with Accutase (Innovative Cell Technologies, Inc., San Diego, CA) according to manufacturer’s instructions. Cells were seeded in 96-well plates, at a density of ~ 30,000 cells/well (in 100 µl fresh media) and incubated with varying concentrations of GLUT3 inhibitors for 48 h, at 37 °C and 5% CO2 in a humidified incubator. The inhibitors were dissolved in DMSO, at 100× the final concentration, so that 1 µl of the stock inhibitor concentration was added per well, making the final DMSO concentration 1% (v/v). Therefore, controls for 100% cell viability were cells with 1% (v/v) DMSO without the inhibitors. Controls for 0% cell viability were cells treated with 0.3% (v/v) Tween 20. For MTT assay, 10 µl of MTT reagent was added in each well followed by 3–4 h incubation at 37 °C and 5% CO2 in a humidified incubator. After thoroughly mixing in 200 µl DMSO in each well, the plates were put into a plate reader (BioTek Synergy H1), and the absorbances at 570 nm and 630 nm were measured with Gen5 program (BioTek Inc.). The experimental values represent Abs570 nm-Abs630 nm with each inhibitor condition and control being the average of three wells.
Supplementary Figure S8. Effect of GLUT3 inhibitors on the viability of various cancer cell lines. Cell viability was determined by MTT assay in A549 (lung cancer), BeWo (choriocarcinoma), Caco-2 (colon cancer), HepG2 (liver cancer), HL-60 (leukemia), MCF7 (breast cancer), and U937 (histiocytic lymphoma) cell lines. GLUT3 inhibitors at concentrations of 2, 5, 10, 20, 50, and 100 µM were incubated with cells in 96-well plates for 48 hours before the addition of the MTT reagent.

Regarding `COc1ccccc1-n1c(/C=C/c2ccc(O)cc2)nc2ccc(Br)cc2c1=O` [G3iB, 6-bromo-2-[(E)-2-(4-hydroxyphenyl)ethenyl]-3-(2-methoxyphenyl)quinazolin-4(3H)-one], the CC50 was 39.3 ± 4 µM. In addition, the 50% cytotoxic concentration (CC50) (Homo sapiens) was < 50 µM.
Regarding `Cc1cccnc1OC1CCN(c2cc(N3CCCC3CO)ncn2)CC1` (stereo not shown) [G3iC], the CC50 (Homo sapiens) is > 100 µM.
Still for that read-out and setting: as for `Cc1ccccc1CN(Cc1nnc(C(C)(C)C)o1)c1ccc2nc(O)[nH]c2c1` [G3iF], the figure is > 100 µM; as for `CC(=O)Nc1ccc(S(=O)(=O)Nc2ccc(Nc3cc(N(C)C)nc(C)n3)cc2)cc1` [G3iA, N-(4-{[(4-{[6-(dimethylamino)-2-methylpyrimidin-4-yl]amino}phenyl)amino]sulfonyl}phenyl)acetamide], > 100 µM.
Still for that read-out and setting: under `O=C(Nc1cccc(Cl)c1)c1cccc(NC(=O)c2cccc([N+](=O)[O-])c2)c1` [G3iE, N-{3-[(3-chloroanilino)carbonyl]phenyl}-3-nitrobenzamide] stands > 100 µM; under `Cc1cc(NC(=O)CCC2Cc3ccccc3NC2=O)nc(-c2ccccc2)n1` (stereo not shown) [G3iD], > 100 µM.
